The results in this text go back to patent publication US10227281B2, “Preparation of 2,6- and 2,7-disubstituted anthraquinone derivates” (BASF SE, priority 2014, dated 2019).

Series [1] can be described thus: Determination of the solubility of anthraquinone derivatives in xylene/diisobutylcarbinol. The note with it: for Solubility in the solvent system used (in words): xylene/diisobutylcarbinol solvent system, comparison of the derivatives.
Method: 0.06 ml of a mixture of xylene (50 volume-%) and diisobutylcarbinol (50 volume-%) were added to 1 g of the respective anthraquinone derivative at 22° C. every 60 seconds until the anthraquinone derivative was dissolved completely.
Series [2] is described as follows: Solubility of the anthrahydroquinone from the amount of absorbed hydrogen until precipitation. The note with it: hydroquinone form, equivolume mixture of xylene and diisobutylcarbinol, 30° C. It counts as physicochemical. Here is the method:
5 g of the anthraquinone derivative obtained from Example 4 were dissolved in an equivolume mixture of xylene and diisobutylcarbinol at 30° C. to obtain 100 ml of an anthraquinone solution. 2 g of a palladium catalyst on alumina was added to 50 ml of the anthraquinone solution and then the solution was made to absorb the theoretical amount of hydrogen at 30° C. The obtained solution has been left untouched for 15 h to thoroughly precipitate the excess of anthrahydroquinone. After the catalyst and the precipitate have been separated by filtration under a current of nitrogen, the resulting solution was stirred under air in order to oxidize the anthrahydroquinone back to the corresponding anthraquinone. The produced hydrogen peroxide was extracted with water. After the extraction of the hydrogen peroxide was completed, 25 mL of the working solution were further submitted to subsequent hydrogenation at 30° C. as described above until a state of saturation was reached.

[3] abbreviates: mixture of xylene (50 volume-%) and diisobutylcarbinol (50 volume-%), 22° C., quinone form.

Converted amounts (≈) assume the structure as drawn.

“2,6-bis(4-methylpent-3-enyl)anthracene-9,10-dione and 2,7-bis(4-methylpent-3-enyl)anthracene-9,10-dione [Example 1]”: in series [1] (setting [3]), the Solubility turned out to be 770 mM.

Turning to “2,6-diisohexylanthracene-9,10-dione and 2,7-diisohexylanthracene-9,10-dione [Example 4]”, the “Solubility of the anthrahydroquinone” value in series [2] was found to be 1010 mM. For the same compound, the Solubility in series [1] (setting [3]) came to 1610 mM. Besides, the “Solubility in the solvent system used (in words)” value (from here on “Solubility … (in words)”) in series [1] is reported as “highest solubility”.

In the case of `CCc1ccc2c(c1)C(=O)c1ccccc1C2=O` [2-ethylanthraquinone], the “Solubility … (in words)” value in series [1] is reported as “only poorly soluble”.

As to `CC(C)=CCc1ccc2c(c1)C(=O)c1ccccc1C2=O` [Comparative Example 1, 2-(3-methylbut-2-en-1-yl)anthracene-9,10-dione], in series [1] (xylene/diisobutylcarbinol mixture (50:50 by volume)), the Solubility was 770 mM (≈ 213 mg/mL).

Take `Cc1cc2c(cc1C)C(=O)c1cc(C)c(C)cc1C2=O` [Comparative Example 3, 2,3,6,7-tetramethylanthracene-9,10-dione]: the Solubility result in series [1] (setting [3]) is listed as “Insoluble”. The “Solubility … (in words)” value in series [1] is on record as “insoluble”.
